Each structure is given as a SMILES string.

A word on the IC50: it is the concentration that gives 50% inhibition.

Type in all cases: cell-based
One assay concerns the target T1, Mer (Homo sapiens, UniProt Q12866).
T1 construct: host or cells: 293A cells (Thermo Fisher #R70507)
T1 sequence (Q12866 21-999): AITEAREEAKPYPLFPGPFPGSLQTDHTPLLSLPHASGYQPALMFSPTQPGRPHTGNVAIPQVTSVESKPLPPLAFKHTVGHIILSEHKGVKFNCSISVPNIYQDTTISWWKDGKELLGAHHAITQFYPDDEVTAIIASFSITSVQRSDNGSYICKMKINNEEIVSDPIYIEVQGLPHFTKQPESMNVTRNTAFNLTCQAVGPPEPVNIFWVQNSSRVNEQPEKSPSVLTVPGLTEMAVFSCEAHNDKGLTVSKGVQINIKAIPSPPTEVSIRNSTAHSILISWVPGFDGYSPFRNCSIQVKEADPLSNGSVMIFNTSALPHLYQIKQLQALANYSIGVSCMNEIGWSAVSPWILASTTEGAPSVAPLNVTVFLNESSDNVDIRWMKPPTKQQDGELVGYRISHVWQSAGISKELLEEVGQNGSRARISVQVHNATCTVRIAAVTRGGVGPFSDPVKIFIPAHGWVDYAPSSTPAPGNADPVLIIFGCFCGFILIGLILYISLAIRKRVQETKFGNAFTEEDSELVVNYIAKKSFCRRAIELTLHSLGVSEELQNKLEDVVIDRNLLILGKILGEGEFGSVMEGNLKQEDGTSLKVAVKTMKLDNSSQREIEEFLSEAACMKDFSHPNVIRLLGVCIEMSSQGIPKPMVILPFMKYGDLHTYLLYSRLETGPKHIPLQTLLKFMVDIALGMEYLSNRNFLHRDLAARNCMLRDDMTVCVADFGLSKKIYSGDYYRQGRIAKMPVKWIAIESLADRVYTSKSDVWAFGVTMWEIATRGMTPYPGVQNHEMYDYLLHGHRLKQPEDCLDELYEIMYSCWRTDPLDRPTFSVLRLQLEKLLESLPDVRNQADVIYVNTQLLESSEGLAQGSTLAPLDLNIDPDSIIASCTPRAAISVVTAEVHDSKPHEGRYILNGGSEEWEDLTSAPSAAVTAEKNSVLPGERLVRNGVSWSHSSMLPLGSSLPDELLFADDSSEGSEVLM
In words: Mer autophosphorylation ELISA in transient transfected 293A cells. Conditions: Table 3 Cellular Activities; MERTK-transfected 293A cells, phospho-Mer ELISA. As to the method: 293A cells (Thermo Fisher #R70507) were seeded at 1.5×10^6 cells/well onto 100 mm dish (Greiner #664169), in DMEM (Thermo Fisher #11995-040) containing 10% FBS (Thermo Fisher #26140-079), 1% MEM NEAA (Thermo Fisher #11140-050), 1% GlutaMax (Thermo Fisher #35050-061), and 1% Penicillin Streptomycin (Thermo Fisher #15140-122). 293A cells were incubated at 37° C., 5% CO2 for 24 h and then transfected with 6μg MERTK DNA (Genecopoeia #EX-Z8208-M02) using TransIT LT1 transfection reagent (Mirus-Bio #MIR2305). After 24 h incubation, the transfected 293A cells were seeded at 1×10^5 cells/well onto 96-well plates (Corning #3904) in DMEM growth medium overnight. Test compounds were serially diluted to produce an 8-point dose curve in fresh serum-free medium to a final concentration of 0.3% DMSO (vehicle) and added to the cells and incubated for 1 h. Cells were then immediately lysed with 150 μL of cold 1× lysis buffer […], 137 mM sodium chloride, 2 mM EDTA, 10% glycerol, 1% NP-40 alternative, 1 mM activated sodium orthovanadate, 1 mM PefaBloc SC (Sigma-Aldrich #11429868001), protease/phosphatase inhibitor tablet (Thermo Fisher #A32959)]. Lysates were clarified by centrifugation and 50 μL/well added into the human phospho-Mer DuoSet IC ELISA (R&D Systems #DYC2579-2). Assay was performed according to manufacturer's instructions and sample phospho-Mer concentrations were extrapolated using human phospho-Mer control (R&D Systems #841793) as a standard. Positive control wells (100% activity) contained DMSO-treated cell lysates. Negative control wells (0% activity) contained reference inhibitor-treated cell lysates. IC50 values were calculated by nonlinear regression analysis using a 4-parameter logistic curve fit in ActivityBase XE (IDBS).
Background: ELISA stands for enzyme-linked immunosorbent assay.

Another assay deals with KDR (Homo sapiens, UniProt P35968). In words: KDR autophosphorylation ELISA in HUVEC cells. Also on record: endogenous in cells; host or cells: HUVEC (Lonza #C2519A). Conditions: Table 3 Cellular Activities, VEGF165-stimulated, phospho-KDR ELISA. The protocol:
Human umbilical vein endothelial cells or HUVEC (Lonza #C2519A) were seeded at 2×10^4 cells/well onto 96-well plates (Corning #3904), in EGM-2 growth medium (Lonza #CC-3162) containing 1% Penicillin Streptomycin (Thermo Fisher #15140-122). HUVEC cells were incubated at 37° C., 5% CO2 for 24 h and then starved for 24 h in serum-free EBM-2 basal medium (Lonza #CC-3156) containing 1% Penicillin Streptomycin. Test compounds were serially diluted to produce an 8-point dose curve in fresh serum-free medium to a final concentration of 0.3% DMSO (vehicle) and added to the cells and incubated for 1 h. Cells were then stimulated with 100 ng/mL recombinant human VEGF165 (R&D Systems #293-VE-500) for 5 min, washed with cold PBS, and immediately lysed with 130 μL of cold 1× lysis buffer [20 mM Tris, 137 mM sodium chloride, 2 mM EDTA, 10% glycerol, 1% NP-40 alternative, 1 mM activated sodium orthovanadate, 1 mM PefaBloc SC (Sigma-Aldrich #11429868001), protease/phosphatase inhibitor tablet (Thermo Fisher #A32959)]. Lysates were collected and 100 μL/well added into the human phospho-KDR DuoSet IC ELISA (R&D Systems #DYC1766-2). Assay was performed according to manufacturer's instructions and sample phospho-KDR concentrations were extrapolated using human phospho-KDR control (R&D Systems #841421) as a standard. Positive control wells (100% activity) contained VEGF165-stimulated, DMSO-treated cell lysates. Negative control wells (0% activity) contained non-stimulated cell lysates. IC50 values were calculated by nonlinear regression analysis using a 4-parameter logistic curve fit in ActivityBase XE (IDBS).

The target of a further assay is Met (Homo sapiens, UniProt P08581). The assay can be described thus: Met autophosphorylation ELISA in PC-3 cells. More on the design: endogenous in cells; host or cells: PC-3 prostate cancer cells (ATCC #CRL-1435). Conditions: Table 3 Cellular Activities, HGF-stimulated, phospho-Met ELISA, read-out: c-Met IC50. The protocol: PC-3 prostate cancer cells (ATCC #CRL-1435) were seeded at 4×10^4 cells/well onto 24-well plates (Greiner #662165), in DMEM (Thermo Fisher #11995-040) containing 10% FBS (Thermo Fisher #26140-079), 1% MEM NEAA (Thermo Fisher #11140-050), 1% GlutaMax (Thermo Fisher #35050-061), and 1% Penicillin Streptomycin (Thermo Fisher #15140-122). PC-3 cells were incubated at 37° C., 5% CO2 for 24 h and then starved for 3 h in serum-free medium. Test compounds were serially diluted to produce an 8-point dose curve in fresh serum-free medium to a final concentration of 0.3% DMSO (vehicle) and added to the cells and incubated for 1 h. Cells were then stimulated with 100 ng/mL recombinant human HGF (R&D Systems #294-HG-250) for 10 min, washed with cold PBS, and immediately lysed with 130 μL of cold 1× lysis buffer [20 mM Tris, 137 mM sodium chloride, 2 mM EDTA, 10% glycerol, 1% NP-40 alternative, 1 mM activated sodium orthovanadate, 1 mM PefaBloc SC (Sigma-Aldrich #11429868001), protease/phosphatase inhibitor tablet (Thermo Fisher #A32959)]. Lysates were clarified by centrifugation and 100 μL/well added into the PathScan phospho-Met (panTyr) Sandwich ELISA (Cell Signaling Technology #7333). Assay was performed according to manufacturer's instructions. Positive control wells (100% activity) contained HGF-stimulated, DMSO-treated cell lysates. Negative control wells (0% activity) contained HGF-stimulated, reference inhibitor-treated cell lysates. IC50 values were calculated by nonlinear regression analysis using a 4-parameter logistic curve fit in ActivityBase XE (IDBS).
Met, sequence (P08581 25-1390): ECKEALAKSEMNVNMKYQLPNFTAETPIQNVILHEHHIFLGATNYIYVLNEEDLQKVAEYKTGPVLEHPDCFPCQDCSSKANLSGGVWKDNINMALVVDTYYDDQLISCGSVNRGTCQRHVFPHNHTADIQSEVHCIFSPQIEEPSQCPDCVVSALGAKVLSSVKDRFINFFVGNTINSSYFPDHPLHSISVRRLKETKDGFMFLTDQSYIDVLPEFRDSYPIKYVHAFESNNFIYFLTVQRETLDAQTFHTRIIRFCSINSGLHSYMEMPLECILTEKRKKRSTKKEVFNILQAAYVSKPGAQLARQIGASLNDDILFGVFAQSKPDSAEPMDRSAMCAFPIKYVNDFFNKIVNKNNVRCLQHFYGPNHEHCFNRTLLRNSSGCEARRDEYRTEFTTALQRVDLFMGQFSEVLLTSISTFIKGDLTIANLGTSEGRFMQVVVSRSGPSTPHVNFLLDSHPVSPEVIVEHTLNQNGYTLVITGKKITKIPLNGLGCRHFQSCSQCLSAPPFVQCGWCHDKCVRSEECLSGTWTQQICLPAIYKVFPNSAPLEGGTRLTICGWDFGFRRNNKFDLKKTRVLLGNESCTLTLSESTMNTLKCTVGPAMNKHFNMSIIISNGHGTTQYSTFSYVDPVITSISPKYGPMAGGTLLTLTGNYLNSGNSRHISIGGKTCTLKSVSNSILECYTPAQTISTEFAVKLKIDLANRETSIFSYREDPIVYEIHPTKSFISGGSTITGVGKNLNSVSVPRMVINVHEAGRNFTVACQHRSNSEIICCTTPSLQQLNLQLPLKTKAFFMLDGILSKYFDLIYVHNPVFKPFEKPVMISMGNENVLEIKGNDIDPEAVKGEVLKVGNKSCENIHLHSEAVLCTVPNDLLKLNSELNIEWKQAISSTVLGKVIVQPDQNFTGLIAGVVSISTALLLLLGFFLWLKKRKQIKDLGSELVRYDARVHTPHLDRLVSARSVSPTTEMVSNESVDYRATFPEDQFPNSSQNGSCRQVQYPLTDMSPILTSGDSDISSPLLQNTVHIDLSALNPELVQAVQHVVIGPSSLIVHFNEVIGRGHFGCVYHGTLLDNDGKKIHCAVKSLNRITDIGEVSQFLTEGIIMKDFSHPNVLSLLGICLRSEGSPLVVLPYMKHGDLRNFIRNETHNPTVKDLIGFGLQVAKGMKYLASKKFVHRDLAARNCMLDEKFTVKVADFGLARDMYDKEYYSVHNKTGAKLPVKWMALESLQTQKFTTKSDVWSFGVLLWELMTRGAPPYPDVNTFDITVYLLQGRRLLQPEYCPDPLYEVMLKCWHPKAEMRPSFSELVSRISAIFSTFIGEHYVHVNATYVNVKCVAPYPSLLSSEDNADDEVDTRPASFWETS

KDR, sequence (P35968 20-1356): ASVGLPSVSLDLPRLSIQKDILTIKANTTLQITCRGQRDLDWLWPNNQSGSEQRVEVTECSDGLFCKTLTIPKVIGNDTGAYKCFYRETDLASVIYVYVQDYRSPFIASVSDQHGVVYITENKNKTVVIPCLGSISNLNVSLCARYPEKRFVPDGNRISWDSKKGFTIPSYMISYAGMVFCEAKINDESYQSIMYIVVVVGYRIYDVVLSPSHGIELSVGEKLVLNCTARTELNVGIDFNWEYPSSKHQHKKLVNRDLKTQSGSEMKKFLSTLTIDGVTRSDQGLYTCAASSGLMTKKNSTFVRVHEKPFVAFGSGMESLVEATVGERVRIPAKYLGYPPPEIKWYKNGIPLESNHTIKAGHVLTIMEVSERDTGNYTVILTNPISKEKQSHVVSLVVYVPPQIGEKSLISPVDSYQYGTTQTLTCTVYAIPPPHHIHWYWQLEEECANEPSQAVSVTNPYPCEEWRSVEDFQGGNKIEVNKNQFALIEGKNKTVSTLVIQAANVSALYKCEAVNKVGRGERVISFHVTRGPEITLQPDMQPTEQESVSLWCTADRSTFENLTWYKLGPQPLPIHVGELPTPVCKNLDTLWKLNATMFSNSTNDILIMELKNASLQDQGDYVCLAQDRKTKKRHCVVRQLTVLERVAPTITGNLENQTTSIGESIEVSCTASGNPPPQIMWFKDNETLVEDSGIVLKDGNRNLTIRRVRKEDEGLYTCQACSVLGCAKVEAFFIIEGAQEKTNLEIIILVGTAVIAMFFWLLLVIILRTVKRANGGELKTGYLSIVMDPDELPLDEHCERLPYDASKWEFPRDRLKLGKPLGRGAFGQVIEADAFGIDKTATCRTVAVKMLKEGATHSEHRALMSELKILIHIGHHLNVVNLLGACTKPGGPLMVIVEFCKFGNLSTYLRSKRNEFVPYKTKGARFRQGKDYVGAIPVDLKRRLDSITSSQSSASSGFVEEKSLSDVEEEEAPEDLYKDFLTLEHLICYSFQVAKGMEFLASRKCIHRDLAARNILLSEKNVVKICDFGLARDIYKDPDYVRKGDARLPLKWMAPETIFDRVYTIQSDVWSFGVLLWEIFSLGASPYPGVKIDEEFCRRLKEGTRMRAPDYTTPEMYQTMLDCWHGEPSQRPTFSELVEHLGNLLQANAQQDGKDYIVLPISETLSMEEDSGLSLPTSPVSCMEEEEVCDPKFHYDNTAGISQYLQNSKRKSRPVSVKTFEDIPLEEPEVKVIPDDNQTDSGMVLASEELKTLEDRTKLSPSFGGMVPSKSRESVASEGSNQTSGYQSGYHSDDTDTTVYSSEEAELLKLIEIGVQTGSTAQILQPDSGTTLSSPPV

Regarding `COc1cc2nccc(Oc3ccc(NC(=O)c4ccc(C)n(-c5ccnc(OC(C)C)c5)c4=O)cc3F)c2nc1OC` [Compound 225, N-[4-[(6,7-Dimethoxy-1,5-naphthyridin-4-yl)oxy]-3-fluorophenyl]-6-methyl-2-oxo-1-(2-propan-2-yloxypyridin-4-yl)pyridine-3-carboxamide], the 50% inhibitory concentration (IC50) on Mer was not above 0.1 µM; at KDR it was 0.3 to 1 µM; on Met, not above 0.1 µM.
With `CCc1c(C(=O)Nc2ccc(Oc3ccnc4cc(OC)c(OC)nc34)cc2)c(=O)c(-c2ccco2)c(C)n1C` [Compound 325, N-[4-[(6,7-Dimethoxy-1,5-naphthyridin-4-yl)oxy]phenyl]-2-ethyl-5-(furan-2-yl)-1,6-dimethyl-4-oxopyridine-3-carboxamide], the values for the IC50 at Mer, against KDR and at Met were not above 0.1 µM, 0.3 to 1 µM and 0.3 to 1 µM, respectively.
For the compound `COc1cc2nccc(Oc3ccc(NC(=O)c4c(C)ncc(-c5ccc(C)s5)c4O)cc3F)c2nc1OC` [Compound 124, N-[4-[(6,7-Dimethoxy-1,5-naphthyridin-4-yl)oxy]-3-fluorophenyl]-4-hydroxy-2-methyl-5-(5-methylthiophen-2-yl)pyridine-3-carboxamide], the IC50 on Mer, at KDR and at Met was not above 0.1 µM in each case.
Turning to `COc1cc2nccc(Oc3ccc(NC(=O)c4cc(C(C)=O)c(C)n(-c5ccoc5)c4=O)cc3)c2nc1OC` [Compound 239, 5-Acetyl-N-[4-[(6,7-dimethoxy-1,5-naphthyridin-4-yl)oxy]phenyl]-1-(furan-3-yl)-6-methyl-2-oxopyridine-3-carboxamide], the IC50 on Mer, at KDR and on Met was 0.3 to 1 µM each time.
As to `COc1cnc2c(Oc3ccc(NC(=O)c4c(C)n(C)c(C)c(-c5ccco5)c4=O)cc3)ccnc2c1` [Compound 161, 5-(Furan-2-yl)-N-[4-[(7-methoxy-1,5-naphthyridin-4-yl)oxy]phenyl]-1,2,6-trimethyl-4-oxopyridine-3-carboxamide], the IC50 is not above 0.1 µM at Mer, 0.3 to 1 µM against KDR and not above 0.1 µM at Met.
As to `COc1cc2nccc(Oc3ccc(NC(=O)c4c(C)n(CC(F)F)cc(-c5ccco5)c4=O)cc3F)c2nc1OC` [Compound 275, 1-(2,2-Difluoroethyl)-N-[4-[(6,7-dimethoxy-1,5-naphthyridin-4-yl)oxy]-3-fluorophenyl]-5-(furan-2-yl)-2-methyl-4-oxopyridine-3-carboxamide], the IC50 is not above 0.1 µM on Mer, 0.3 to 1 µM on KDR and not above 0.1 µM on Met.
Take `CCOCCOCCOc1cc(-n2c(C)ccc(C(=O)Nc3ccc(Oc4ccnc5cc(OC)c(OC)nc45)c(F)c3)c2=O)ccn1` [Compound 224, N-[4-[(6,7-Dimethoxy-1,5-naphthyridin-4-yl)oxy]-3-fluorophenyl]-1-[2-[2-(2-ethoxyethoxy)ethoxy]pyridin-4-yl]-6-methyl-2-oxopyridine-3-carboxamide]: the IC50 against Mer, against KDR and at Met was not above 0.1 µM throughout.
Turning to `COc1cc2nccc(Oc3ccc(NC(=O)c4c5n(cc(-c6ccsc6)c4=O)CCOC5)cc3F)c2nc1OC` [Compound 300, N-[4-[(6,7-Dimethoxy-1,5-naphthyridin-4-yl)oxy]-3-fluorophenyl]-8-oxo-7-thiophen-3-yl-3,4-dihydro-1H-pyrido[2,1-c][1,4]oxazine-9-carboxamide], the IC50 against Mer is not above 0.1 µM; at KDR it was 0.1 to 0.3 µM; at Met, not above 0.1 µM.
Take `CCc1c(C(=O)Nc2ccc(Oc3ccnc4cc(OCCOC)c(OC)nc34)c(F)c2)c(=O)c(-c2ccco2)c(C)n1C` [Compound 326, 2-Ethyl-N-[3-fluoro-4-[[6-methoxy-7-(2-methoxyethoxy)-1,5-naphthyridin-4-yl]oxy]phenyl]-5-(furan-2-yl)-1,6-dimethyl-4-oxopyridine-3-carboxamide]: the IC50 against Mer, against KDR and on Met was not above 0.1 µM in each case.
As for `COCc1nc(C)c(-c2ccnc(C)c2)c(O)c1C(=O)Nc1ccc(Oc2ccnc3cc(OC)c(OC)nc23)c(F)c1` [Compound 198, N-[4-[(6,7-Dimethoxy-1,5-naphthyridin-4-yl)oxy]-3-fluorophenyl]-4-hydroxy-2-(methoxymethyl)-6-methyl-5-(2-methylpyridin-4-yl)pyridine-3-carboxamide], the 50% inhibitory concentration (IC50) on Mer, against KDR and on Met was not above 0.1 µM in each case.
